From patent publication US8663646B2, “P53 peptide vaccine” (priority 2007, dated 2014)
Where no end group is shown, it is not given here.

Key:
HLA-A*1101 = molecular target: T1, HLA-A*1101 (Homo sapiens, UniProt P04439, A114D/D185E/E176A/F33Y/L180Q/S129P/T187R); test: Stability of peptide-HLA complex, binding at 4° C. and 20° C., HLA-A*1101; details: for Peptide Binding Stability: HLA-A*1101, IC50 at 20° C. vs 4° C.; for HLA binding Stability (Table 5): HLA type A11
T1 construct: B-cell lines used are: CAA (A*0101), EKR (A*0301), BVR (A*1101), VIJF (A*2401); endogenous in cells; host or cells: B-cell line BVR
Description: (§1) Stability of other peptide-HLA complexes was preferably determined as follows. […] Peptides of >50% of the initial complexes was lost within 2 hours were considered unstable. […] The rest was designated as unstable peptide binding.
(§2) Peptides 8-11 residues in length were selected based on typical anchor residues for HLA-A*0101, A*0301, A*1101 and HLA-A*2401 (Rammensee H G et al). The capacity of peptides to bind was tested in a competition based cellular binding assay as previously described (van der Burg S H et al 1995). FL-labeled reference peptides were synthesized as Cys-derivative (van der Burg S H et al 1995). Fluorescence labeled reference peptides used were: YLEPAC(FL)AK (SEQ ID NO: 87) (HLA-A*0101) and KVFPC(FL)ALINK (SEQ ID NO: 88) (HLA-A*1101) (Sette A et al), KVFPC(FL)ALINK (SEQ ID NO: 89) (HLAA*0301) (van der Burg S H et al 1995) and RYLKC(FL)QQLL (SEQ ID NO: 90) (A*2401) (Dai L C et al). B-cell lines used are: CAA (A*0101), EKR (A*0301), BVR (A*1101), VIJF (A*2401). The relative binding capacity of the peptides is expressed as the peptide concentration to inhibit 50% (1050) of the binding of the reference peptide. […] Peptide stabilization for HLA-A*0201 was performed as previously described (van der Burg S H et al, 1996). Peptides of >50% of the initial complexes was lost within 2 hours were considered unstable. Stability of other peptide-HLA complexes was determined as follows. Peptide binding was performed at 4° C. and 20° C. and 1050 were determined. […] The rest was designated as unstable peptide binding.

HLA-A*0301 [1] = molecular target: T2, HLA-A*0301 (Homo sapiens, UniProt P04439); test: Stability of peptide-HLA complex, binding at 4° C. and 20° C., HLA-A*0301; details: for Peptide Binding Stability: HLA-A*0301, IC50 at 20° C. vs 4° C.; for HLA binding Stability (Table 5): HLA type A3
T2 construct: B-cell lines used are: CAA (A*0101), EKR (A*0301), BVR (A*1101), VIJF (A*2401); endogenous in cells; host or cells: B-cell line EKR
Description: as §1, §2

HLA-A*0301 [2] = molecular target: T2, HLA-A*0301; test: Competition based cellular binding assay, HLA-A*0301 (B-cell line EKR); details: for HLA binding Affinity (Table 5): HLA type A3; for IC50: read-out: Peptide Binding Affinity

Row | HLA binding Affinity (Table 5) (HLA-A*0301 [2]) | IC50 (HLA-A*0301 [2]; HLA-A*0301, IC50 category) [µM] | Peptide Binding Affinity (HLA-A*0301 [2]; HLA-A*0301, IC50 category) | Molecule | Peptide Binding Stability (HLA-A*1101) | Peptide Binding Stability (HLA-A*0301 [1]) | HLA binding Stability (Table 5) (HLA-A*0301 [1]) | HLA binding Stability (Table 5) (HLA-A*1101)
1 |  |  |  | CC(C)C[C@H](NC(=O)[C@H](C)NC(=O)[C@@H]1CCCN1C(=O)[C@H](CO)NC(=O)[C@H](Cc1ccc(O)cc1)NC(=O)[C@@H](NC(=O)[C@@H](N)CS)[C@@H](C)O)C(=O)N[C@@H](CC(N)=O)C(=O)N[C@@H](CCCCN)C(=O)O [p53 124-132] | + (Stable peptides displayed IC50 at 20 °C that deviated <2 times of the IC50 at 4° C.) | + (Stable peptides displayed IC50 at 20 °C that deviated <2 times of the IC50 at 4° C.) |  | 
2 |  |  |  | CC[C@H](C)[C@H](NC(=O)[C@H](C)NC(=O)[C@H](CCSC)NC(=O)[C@H](C)NC(=O)[C@H](CCCNC(=N)N)NC(=O)[C@@H](NC(=O)[C@H](CCCNC(=N)N)NC(=O)[C@@H](NC(=O)CN)[C@@H](C)O)C(C)C)C(=O)N[C@@H](Cc1ccc(O)cc1)C(=O)N[C@@H](CCCCN)C(=O)O [p53 154-164] |  | + (Stable peptides displayed IC50 at 20 °C that deviated <2 times of the IC50 at 4° C.) | + (Stable peptides displayed IC50 at 20 °C that deviated <2 times of the IC50 at 4° C.) | 
3 | int | 5 to 15 |  | RAHSSHLKSK [p53 363-372] |  | +/− (Peptides that displayed IC50 at 20 °C of more than twice the IC50 at 4 °C but IC50 < 15 μM were considered to bind with intermediate stability.) | − (The rest was designated as unstable peptide binding.) | 
4 |  |  |  | CSCC[C@H](NC(=O)[C@H](CC(C)C)NC(=O)[C@H](CCCCN)NC(=O)[C@H](CCCCN)NC(=O)[C@H](Cc1c[nH]cn1)NC(=O)[C@H](CCCNC(=N)N)NC(=O)[C@H](CO)NC(=O)[C@@H](NC(=O)[C@@H](N)CO)[C@@H](C)O)C(=O)N[C@@H](Cc1ccccc1)C(=O)N[C@@H](CCCCN)C(=O)O [p53 376-386] |  | +/− (Peptides that displayed IC50 at 20 °C of more than twice the IC50 at 4 °C but IC50 < 15 μM were considered to bind with intermediate stability.) | − (The rest was designated as unstable peptide binding.) | 
5 | int | 5 to 15 |  | GGSRAHSSHLK [p53 360-370] |  | − (The rest was designated as unstable peptide binding.) | − (The rest was designated as unstable peptide binding.) | 
6 | high |  | high | GSRAHSSHLK [p53 361-370] |  | + (Stable peptides displayed IC50 at 20 °C that deviated <2 times of the IC50 at 4° C.) | + (Stable peptides displayed IC50 at 20 °C that deviated <2 times of the IC50 at 4° C.) | 
7 | int | 5 to 15 |  | RVRAMAIY [p53 156-163] |  | − (The rest was designated as unstable peptide binding.) | − (The rest was designated as unstable peptide binding.) | 
8 |  |  |  | CC(C)C[C@H](NC(=O)[C@H](Cc1c[nH]cn1)NC(=O)[C@H](CO)NC(=O)[C@H](CO)NC(=O)[C@H](Cc1c[nH]cn1)NC(=O)[C@H](C)NC(=O)[C@@H](N)CCCNC(=N)N)C(=O)N[C@@H](CCCCN)C(=O)N[C@@H](CO)C(=O)N[C@@H](CCCCN)C(=O)N[C@@H](CCCCN)C(=O)O [p53 363-373] |  | + (Stable peptides displayed IC50 at 20 °C that deviated <2 times of the IC50 at 4° C.) | + (Stable peptides displayed IC50 at 20 °C that deviated <2 times of the IC50 at 4° C.) | 
9 |  |  |  | CC[C@H](C)[C@H](NC(=O)[C@H](C)NC(=O)[C@H](CCSC)NC(=O)[C@H](C)NC(=O)[C@H](CCCNC(=N)N)NC(=O)[C@@H](NC(=O)[C@@H](N)CCCNC(=N)N)C(C)C)C(=O)N[C@@H](Cc1ccc(O)cc1)C(=O)N[C@@H](CCCCN)C(=O)O [p53 156-164] | + (Stable peptides displayed IC50 at 20 °C that deviated <2 times of the IC50 at 4° C.) | + (Stable peptides displayed IC50 at 20 °C that deviated <2 times of the IC50 at 4° C.) | + (Stable peptides displayed IC50 at 20 °C that deviated <2 times of the IC50 at 4° C.) | + (Stable peptides displayed IC50 at 20 °C that deviated <2 times of the IC50 at 4° C.)
10 |  |  |  | CC[C@H](C)[C@H](NC(=O)[C@H](C)NC(=O)[C@H](CCSC)NC(=O)[C@H](C)NC(=O)[C@H](CCCNC(=N)N)NC(=O)[C@@H](NC(=O)[C@H](CCCNC(=N)N)NC(=O)[C@@H](NC(=O)CN)[C@@H](C)O)C(C)C)C(=O)N[C@@H](Cc1ccc(O)cc1)C(=O)O [p53 154-163] |  | − (The rest was designated as unstable peptide binding.) | − (The rest was designated as unstable peptide binding.) | 
11 |  |  |  | CC(C)[C@H](N)C(=O)N[C@H](C(=O)N[C@@H](CCCNC(=N)N)C(=O)N[C@@H](CCCNC(=N)N)C(=O)N[C@@H](CS)C(=O)N1CCC[C@H]1C(=O)N[C@@H](Cc1c[nH]cn1)C(=O)N[C@@H](Cc1c[nH]cn1)C(=O)N[C@@H](CCC(=O)O)C(=O)N[C@@H](CCCNC(=N)N)C(=O)O)C(C)C [p53 172-181] |  | + (Stable peptides displayed IC50 at 20 °C that deviated <2 times of the IC50 at 4° C.) | + (Stable peptides displayed IC50 at 20 °C that deviated <2 times of the IC50 at 4° C.) | 
12 |  | 5 to 15 |  | CC(C)C[C@H](NC(=O)[C@H](C)NC(=O)[C@@H]1CCCN1C(=O)[C@H](CO)NC(=O)[C@H](Cc1ccc(O)cc1)NC(=O)[C@@H](NC(=O)[C@H](CS)NC(=O)[C@@H](NC(=O)[C@@H](N)C(C)C)[C@@H](C)O)[C@@H](C)O)C(=O)N[C@@H](CC(N)=O)C(=O)N[C@@H](CCCCN)C(=O)O [p53 122-132] |  | + (Stable peptides displayed IC50 at 20 °C that deviated <2 times of the IC50 at 4° C.) |  | 
13 |  |  |  | C[C@@H](O)[C@H](NC(=O)[C@@H](N)CCCCN)C(=O)N[C@@H](Cc1ccc(O)cc1)C(=O)N[C@@H](CCC(N)=O)C(=O)NCC(=O)N[C@@H](CO)C(=O)N[C@@H](Cc1ccc(O)cc1)C(=O)NCC(=O)N[C@@H](Cc1ccccc1)C(=O)N[C@@H](CCCNC(=N)N)C(=O)O [p53 101-110] | +/− (Peptides that displayed IC50 at 20 °C of more than twice the IC50 at 4 °C but IC50 < 15 μM were considered to bind with intermediate stability.) | +/− (Peptides that displayed IC50 at 20 °C of more than twice the IC50 at 4 °C but IC50 < 15 μM were considered to bind with intermediate stability.) | +/− (Peptides that displayed IC50 at 20 °C of more than twice the IC50 at 4 °C but IC50 < 15 μM were considered to bind with intermediate stability.) | +/− (Peptides that displayed IC50 at 20 °C of more than twice the IC50 at 4 °C but IC50 < 15 μM were considered to bind with intermediate stability.)
